# ChEMBL document CHEMBL5512616, “pH regulators and their inhibitors in tumor microenvironment” (Eur J Med Chem, 2024)
# pIC50, pKi: −log10 of the molar value. Several values for one entry are separate records, joined by “and”; a condition that tells them apart may be missing. Identical values can stand only once.
# Molecular target: T1, Monocarboxylate transporter 1 (Rattus norvegicus, UniProt P53987)
# T1 sequence (P53987 whole entry): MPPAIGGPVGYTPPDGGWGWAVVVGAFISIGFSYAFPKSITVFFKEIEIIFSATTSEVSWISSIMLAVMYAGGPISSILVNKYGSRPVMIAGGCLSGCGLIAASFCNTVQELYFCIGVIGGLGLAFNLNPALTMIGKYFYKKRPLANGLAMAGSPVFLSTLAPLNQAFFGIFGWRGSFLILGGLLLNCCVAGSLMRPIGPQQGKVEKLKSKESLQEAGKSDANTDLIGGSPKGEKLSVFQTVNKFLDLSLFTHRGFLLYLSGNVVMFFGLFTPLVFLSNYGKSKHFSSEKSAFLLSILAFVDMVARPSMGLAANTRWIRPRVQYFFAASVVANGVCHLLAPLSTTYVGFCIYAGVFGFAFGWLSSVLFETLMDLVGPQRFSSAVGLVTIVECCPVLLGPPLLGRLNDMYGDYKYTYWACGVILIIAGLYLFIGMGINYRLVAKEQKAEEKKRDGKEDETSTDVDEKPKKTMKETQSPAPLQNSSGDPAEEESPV
# Experiment: not given
# Conditions: not given
row,pIC50,SMILES
1,7.18,CCN(CC)c1ccc(/C=C(\C#N)C(=O)O)cc1
2,< 6.00,N#C/C(=C\c1c[nH]c2ccccc12)C(=O)O
3,7.01,CC(C)(C)[Si](CCOc1ccc(/C=C(\C#N)C(=O)O)cc1)(c1ccccc1)c1ccccc1
4,< 6.00,N#C/C(=C\c1cn(-c2ccccc2C(=O)O)c2ccccc12)C(=O)O

# Molecular target: T2, Sodium/hydrogen exchanger 1 (Homo sapiens, UniProt P19634)
# T2 sequence (P19634 whole entry): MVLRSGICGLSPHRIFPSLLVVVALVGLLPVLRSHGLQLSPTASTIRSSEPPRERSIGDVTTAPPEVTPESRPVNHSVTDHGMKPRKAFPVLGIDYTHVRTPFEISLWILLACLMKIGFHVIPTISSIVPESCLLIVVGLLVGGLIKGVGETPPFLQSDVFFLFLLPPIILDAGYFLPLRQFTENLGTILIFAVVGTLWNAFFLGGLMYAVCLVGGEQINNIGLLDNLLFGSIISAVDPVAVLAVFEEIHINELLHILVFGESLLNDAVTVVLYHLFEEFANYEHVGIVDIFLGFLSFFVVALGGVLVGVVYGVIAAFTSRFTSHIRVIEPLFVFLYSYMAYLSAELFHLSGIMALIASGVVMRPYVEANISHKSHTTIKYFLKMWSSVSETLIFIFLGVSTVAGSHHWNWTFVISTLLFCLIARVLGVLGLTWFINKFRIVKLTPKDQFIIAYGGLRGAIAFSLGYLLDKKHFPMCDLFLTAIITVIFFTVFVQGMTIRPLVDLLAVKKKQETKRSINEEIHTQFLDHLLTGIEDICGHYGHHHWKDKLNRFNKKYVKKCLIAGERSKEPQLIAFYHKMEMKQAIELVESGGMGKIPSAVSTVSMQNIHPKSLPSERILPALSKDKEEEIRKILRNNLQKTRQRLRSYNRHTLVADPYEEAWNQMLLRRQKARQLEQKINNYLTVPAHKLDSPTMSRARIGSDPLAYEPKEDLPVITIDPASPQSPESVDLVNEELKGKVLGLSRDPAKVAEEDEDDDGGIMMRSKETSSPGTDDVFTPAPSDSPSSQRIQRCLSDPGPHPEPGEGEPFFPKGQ
# Experiment: not given
# Conditions: not given
row,SMILES,pIC50
1,N=C(N)NC(=O)[C@H]1C[C@@H]1c1ccccc1,6.30
2,Cc1nc2c(cc1C(=O)N=C(N)N)CCCCC2,7.77
3,Cc1c[nH]c(=O)n(CC(=O)N=C(N)N)c1=O,6.81
4,Cn1c(C(=O)N=C(N)N)cc2ccccc21,6.00

# Continued, values first:
row,pIC50,SMILES
1,6.98,COc1ccc(CN2CCN(CCOc3ccc(C(=O)N=C(N)N)cc3[N+](=O)[O-])CC2)c(OC)c1OC
2,7.17,COc1ccc(CN2CCN(CCOc3ccc(C(=O)NC(=N)N)cc3NC(=O)c3sccc3C)CC2)c(OC)c1OC
3,6.97,CCCCCOc1ccc(C(=O)CN2CCN(Cc3ccc(OC)c(OC)c3OC)CC2)cc1C(=O)N=C(N)N
4,8.22,NC(N)=NC(=O)c1cc2cccc3c2n1C(=O)CCCC3
5,6.70,CC(C)N1C(=O)C(C)(C)Oc2cc(C(=O)N=C(N)N)ccc21
6,5.24,Cn1c(=O)n(Cc2nnc(N)[nH]2)c(=O)c2ccccc21
7,7.00,Cc1cccc2c1cc(C(=O)N=C(N)N)n2C
8,6.92,CC(C)N1C(=O)C(C)(C)Oc2ccc(C(=O)N=C(N)N)cc21
9,8.00,NC(N)=NC(=O)c1ccc2c(Br)cccc2c1
10,5.45,COc1ccc(CN2CCN(Cc3ccc(C(=O)N=C(N)N)cc3NC(=O)c3ccc(C(F)(F)F)cc3)CC2)c(OC)c1OC

# Molecular target: T3, Carbonic anhydrase 2 (Homo sapiens, UniProt P00918)
# Experiment: not given
# Conditions: not given
row,pKi,SMILES
1,< 5.00,COc1ccc(CSc2nnc(COc3ccc4c(C)cc(=O)oc4c3)o2)cc1
2,< 5.00,O=C(Oc1ccc2c(-c3ccccc3)cc(=O)oc2c1)c1ccccc1
3,< 4.00,O=C(CN1C(=O)CSC1=O)c1cc2ccccc2oc1=O
4,< 4.30,O=c1ccc2cc(-n3cc(CNc4ccc(Br)cc4)nn3)ccc2o1
5,< 4.00,Cc1nc(-c2cc3ccccc3oc2=O)ccc1C(=O)/C=C/c1ccccc1

row,SMILES,pKi
1,N#Cc1cc2ccc(O)cc2oc1=O,< 3.70

# Molecular target: T3, Carbonic anhydrase 2
# Experiment: not given
# Conditions: not given
# Remark: another data set of the same source
row,pKi,SMILES
1,< 5.00,CC(C(=O)NCCOc1ccc2oc(=O)ccc2c1)c1ccc(-c2ccccc2)c(F)c1 (centres undefined)
2,< 5.00,C=CCN1CCN(Cc2c(O)ccc3c(C)cc(=O)oc23)CC1

# Tested on: MCF7
# Experiment: cells
# Conditions: Homo sapiens, MCF7, 96 h
row,pIC50,SMILES
1,4.98,C=C(C)[C@@H]1CC[C@]2(COS(N)(=O)=O)CC[C@]3(C)[C@H](CC[C@@H]4[C@@]5(C)CC[C@H](OS(N)(=O)=O)C(C)(C)[C@@H]5CC[C@]43C)[C@@H]12

# Molecular target: T2, Sodium/hydrogen exchanger 1
# Experiment: not given
# Format: cell-based, Platelet
# Conditions: not given
# Remark: another data set of the same source
row,SMILES,pIC50
1,NC(N)=NC(=O)c1cc(Cl)c(N)nc1N,5.89
2,CC(=O)Nc1cc([N+](=O)[O-])c(Cl)cc1C(=O)N=C(N)N,5.44
3,NC(N)=NC(=O)c1nc(Cl)c(N)cc1N,5.64
4,NC(N)=NC(=O)c1cc(Cl)c(N)cc1N,4.80
5,CS(=O)(=O)c1cc(C(=O)N=C(N)N)ccc1N1CCCCC1,7.00 and 6.10
6,Cc1cc(C(C)C)c(S(C)(=O)=O)cc1C(=O)N=C(N)N,8.70
7,CCN(c1nc(N)c(C(=O)NC(=N)N)nc1Cl)C(C)C [5-(N-ETHYL-N-ISOPROPYL)AMILORIDE],6.30
8,CC(C)c1ccc(C(=O)NC(=N)N)cc1S(C)(=O)=O [CARIPORIDE],6.10 and 6.70
9,"N=C(N)NC(=O)c1nc(Cl)c(N2CCCCCC2)nc1N [N,N-HEXAMETHYLENEAMILORIDE]",5.48
10,Cc1cc(S(C)(=O)=O)c(S(C)(=O)=O)cc1C(=O)NC(=N)N [RIMEPORIDE],6.95

# Results, then the molecule that gave them:
row,pIC50,SMILES
1,7.60,Cc1ccc(-c2cc(C)c(C(=O)N=C(N)N)cc2S(C)(=O)=O)cc1
2,7.10,Cc1cc(-n2cccc2)c(S(C)(=O)=O)cc1C(=O)NC(=N)N [ENIPORIDE]
